# Data taken from publication PMC12655351, “Synthesis and Anticancer Activity Evaluation of New 5-((5-Nitrofuran-2-yl)allylidene)-2-thioxo-4-thiazolidinones” (Pharmaceuticals, 2025).
# “And” between values parts separate entries of the source, which are not always exact repeats. Equal values may be shown once. Read-outs that look alike come from different tables or passages of the source.
# Key:
# [1] = system: HS 578T; experiment: cells; details: Homo sapiens, 48 h; for GI50: HS 578T; for CC50: read-out: LC50
# [2] = system: MDA-MB-231/ATCC; details: 48 h; for growth GP: 10 μM
# [3] = system: Ovarian cancer; experiment: cells; details: Homo sapiens; for GI50: read-out: MG_MID GI50; for CC50: read-out: MG_MID LC50
# [4] = system: LOX IMVI; experiment: cells; details: Homo sapiens, 48 h; for CC50: read-out: LC50, LOX IMVI, 48 h
# [5] = system: MDA-MB-231/ATCC; experiment: cells; details: Homo sapiens, MDA-MB-231, 48 h
# [6] = system: Non-small cell lung cancer; experiment: cells; details: Homo sapiens; for GI50: read-out: MG_MID GI50; for CC50: read-out: MG_MID LC50
# [7] = system: UACC-257; experiment: cells; details: Homo sapiens, UACC-257, 48 h; for CC50: read-out: LC50, UACC-257, 48 h
# [8] = system: SK-MEL-28
# [9] = system: SK-OV-3; details: for TGI / GI50: SK-OV-3, 48 h
# [10] = system: NCI-H322M; experiment: NCI-60 SRB screen; details: 48 h; for CC50: read-out: LC50, NCI-H322M, 48 h
# [11] = system: BT-549; details: for growth GP: BT-549, 10 μM
# [12] = system: Colon cancer; experiment: NCI-60 SRB screen, subpanel; details: for MG_MID TGI: Colon cancer subpanel; for GI50 / CC50: Homo sapiens; for GI50: read-out: MG_MID GI50; for CC50: read-out: MG_MID LC50
# [13] = system: A549/ATCC; experiment: NCI-60 SRB screen
# [14] = system: Melanoma; experiment: cells; details: Homo sapiens; for GI50: read-out: MG_MID GI50; for CC50: read-out: MG_MID LC50
# [15] = system: NCI-H23; details: for CC50: human
# [16] = system: Leukemia; details: Leukemia subpanel
# [17] = system: CAKI-1; details: for TGI / GI50: CAKI-1, 48 h; for growth GP: CAKI-1, 10 μM, 48 h
# [18] = system: OVCAR-3; experiment: cells; details: Homo sapiens, OVCAR-3, 48 h
# [19] = system: MDA-MB-435
# [20] = system: panel of 60 cancer cell lines; details: for MG_MID TGI: full panel (last line of Table S2)
# [21] = system: OVCAR-8; details: for TGI / GI50: OVCAR-8, 48 h
# [22] = system: RPMI-8226; details: RPMI-8226, 48 h
# [23] = system: ACHN; experiment: NCI-60 SRB screen; details: 48 h; for CC50: read-out: LC50, ACHN, 48 h; for growth GP: 10 μM
# [24] = system: NCI/ADR-RES; details: 48 h
# [25] = system: MDA-MB-435; experiment: cells; details: Homo sapiens, MDA-MB-435, 48 h; for CC50: read-out: LC50, MDA-MB-435, 48 h
# [26] = system: MDA-MB-231 cell line; experiment: Annexin V-FITC/propidium iodide flow cytometry; assay type: cell-based, human; details: 24 h
# Description: Similarly to Figure 3, Figure 4 showcases the flow cytometric assessment of compounds effects on apoptosis induction on the MDA-MB-231 cell line after 24 h of incubation with tested structures. For this cell line, based on previous results, higher concentrations of tested compounds were chosen: 5 and 10 μM. […] At the same time, compound 12b showcased 7.3% of early and late apoptotic cells, 1.2% of necrotic cells in 5 μM concentration, and 13.8% and 22.3% in 10 μM concentration, consequently.
# To conduct induction of apoptosis on MCF-7 and MDA-MB-231 cell lines, three compounds with the lowest IC50 values were selected (2b, 12b, 14b). The concentration of these compounds depended on the cell line. For MCF-7 cell line concentrations of 1 and 5 μM were used, while for MDA-MB-231 cell line concentrations were 5 and 10 μM. For both cell lines doxorubicin was used as a reference compound in 1 and 5 μM concentrations. This study was evaluated using a flow cytometer (BD FACSCanto II, Becton Dickinson Biosciences Systems, San Jose, CA, USA) and Annexin V binding Apoptosis Detection Kit II (BD Biosciences, San Diego, CA, USA). Cells were seeded in 6-well culture plates cultured in accordance with the previously described methodology. The medium was removed from wells and then cells were washed with PBS. A cell suspension was prepared in the binding buffer provided in the kit at a concentration of 1 × 10^6 cells/mL. A total of 100 µL of cell suspension was collected from each sample and transferred to the tubes. Afterwards, 5 µL of Annexin V-FITC and 4 µL of propidium iodide (PI) were added to each tube and then the tubes were incubated in the dark for 15 min at room temperature. After incubation, the suspension was supplemented to 300 µL with a binding buffer and immediately read in a BD FACSCanto II flow cytometer (Becton Dickinson Biosciences, San Jose, CA, USA), where 10,000 events per sample were measured. Results were analyzed using FACSDiva Software Version 6.1.3. (BD Biosciences Systems, San Jose, CA, USA).
structure (smiles),measurement,setting,value
"O=C(O)C(c1ccccc1)N1C(=O)/C(=C/C=C/c2ccc([N+](=O)[O-])o2)SC1=S (stereo not drawn) [9b, 2-((Z)-5-((E)-3-(5-Nitrofuran-2-yl)allylidene)-4-oxo-2-thioxothiazolidin-3-yl)-2-phenylacetic acid]",GI50,[1],4.59 µM
same,CC50,[1],> 100 µM
same,TGI,[2],24.2 µM
same,GI50,[3],13 µM
same,CC50,[3],60.3 µM
same,GI50,[4],10.8 µM
same,CC50,[4],62.3 µM
same,GI50,"[5]; MDA-MB-231/ATCC, 48 h",10.8 µM
same,CC50,"[5]; read-out: LC50, MDA-MB-231/ATCC, 48 h",54.2 µM
same,GI50,[6],11.1 µM
same,CC50,[6],73.2 µM
same,GI50,[7],13.2 µM
same,CC50,[7],56.1 µM
same,TGI,"[8]; SK-MEL-28, 48 h",23.4 µM
same,TGI,[9],29.9 µM
same,TGI,[10],26.6 µM
same,GI50,[10]; Homo sapiens,13.4 µM
same,CC50,[10]; Homo sapiens,52.5 µM
same,TGI,"[11]; BT-549, 48 h",7.81 µM
same,MG_MID TGI,[12],19.4 µM
same,GI50,[12],6.75 µM
same,CC50,[12],66.2 µM
same,TGI,[13]; 48 h,47.0 µM
same,GI50,"[13]; Homo sapiens, A549, 48 h",16.8 µM
same,GI50,[14],7.49 µM
same,CC50,[14],48.9 µM
same,TGI,"[15]; NCI-H23, 48 h",31.0 µM
same,MG_MID TGI,[16],24.2 µM
same,TGI,[17],19.7 µM
same,GI50,[18],9.26 µM
same,TGI,"[19]; MDA-MB-435, 48 h",13.0 µM
same,Positive cytostatic effect (ratio of cell lines with GP from 0 to 50 to total number),"[20]; 10 μM, 48 h",28/55
same,Mean growth,"[20]; 10 μM, 48 h, one dose",26.29%
same,Range of growth,"[20]; 10 μM, 48 h, one dose",-88.21 to 175.37%
same,MG_MID TGI,[20],24.1 µM
same,TGI,[21],25.5 µM
same,TGI,[22],12.7 µM
same,TGI,[23],21.4 µM
same,GI50,[23]; Homo sapiens,9.25 µM
same,CC50,[23]; Homo sapiens,47.2 µM
same,TGI,[24],33.9 µM
same,GI50,[25],3.04 µM
same,CC50,[25],40.6 µM
"CC(C(=O)O)N1C(=O)/C(=C/C=C/c2ccc([N+](=O)[O-])o2)SC1=S (stereo not drawn) [2b, 2-((Z)-5-((E)-3-(5-Nitrofuran-2-yl)allylidene)-4-oxo-2-thioxothiazolidin-3-yl)propanoic acid]",combined apoptotic cells,"[26]; MDA-MB-231, 5 μM",7.8%
same,necrotic cells,"[26]; MDA-MB-231, 5 μM",6.6%
same,combined apoptotic cells,"[26]; MDA-MB-231, 10 μM",7.5%
same,necrotic cells,"[26]; MDA-MB-231, 10 μM",44%
"O=C(O)CCCN1C(=O)/C(=C/C=C/c2ccc([N+](=O)[O-])o2)SC1=S [13b, 4-((Z)-5-((E)-3-(5-Nitrofuran-2-yl)allylidene)-4-oxo-2-thioxothiazolidin-3-yl)butanoic acid]",CC50,[1],> 100 µM
same,growth GP,[2],-95.61%
same,GI50,[3],0.96 µM
same,CC50,[3],13.2 µM
same,GI50,[4],0.19 µM
same,CC50,[4],0.92 µM
same,GI50,[6],1.21 µM
same,CC50,[6],24.6 µM
same,CC50,[7],6.36 µM
same,GI50,[9],2.18 µM
same,TGI,[9],7.44 µM and 13.1 µM
same,CC50,"[9]; human, 48 h",39.4 µM
same,GI50,[10],1.97 µM
same,TGI,[10],8.09 µM and 5.50 µM
same,GI50,[10]; Homo sapiens,2.52 µM
same,CC50,[10]; Homo sapiens,28.3 µM
same,growth GP,[11]; 48 h,-98.54%
same,MG_MID TGI,[12],1.35 µM
same,GI50,[12],0.52 µM
same,CC50,[12],11.9 µM
same,GI50,[13]; 48 h,0.78 µM
same,GI50,"[13]; Homo sapiens, A549, 48 h",1.36 µM
same,GI50,[14],0.59 µM
same,CC50,[14],3.6 µM
same,growth GP,"[15]; NCI-H23, 10 μM, 48 h",-93.85%
same,TGI,"[15]; NCI-H23, 48 h",3.09 µM and 2.04 µM
same,CC50,[15]; 48 h,5.7 µM
same,MG_MID TGI,[16],28.3 µM
same,growth GP,[17],-96.66%
same,GI50,[17],0.77 µM
same,TGI,[17],1.97 µM and 2.04 µM
same,GI50,[18],0.77 µM
same,Positive cytostatic effect (ratio of cell lines with GP from 0 to 50 to total number),"[20]; 10 μM, 48 h",2/55
same,Mean growth,"[20]; 10 μM, 48 h, one dose",-76.34%
same,MG_MID TGI,[20],4.88 µM
same,GI50,[21],0.27 µM
same,TGI,[21],2.25 µM and 1.24 µM
same,TGI,[22],1.58 µM
same,growth GP,[23],-100.00%
same,TGI,[23],2.21 µM and 1.35 µM
same,CC50,[23]; Homo sapiens,4.7 µM
same,GI50,[24],0.26 µM
same,TGI,[24],1.23 µM and 0.77 µM
"O=C(O)CCCCCN1C(=O)/C(=C/C=C/c2ccc([N+](=O)[O-])o2)SC1=S [14b, 6-((Z)-5-((E)-3-(5-nitrofuran-2-yl)allylidene)-4-oxo-2-thioxothiazolidin-3-yl)hexanoic acid]",GI50,[1],1.44 µM
same,CC50,[1],> 100 µM
same,growth GP,[2],-99.86%
same,GI50,[3],1.11 µM
same,CC50,[3],15.6 µM
same,GI50,[4],0.2 µM
same,CC50,[4],0.88 µM
same,GI50,[6],1.48 µM
same,CC50,[6],21.8 µM
same,GI50,[7],1.6 µM
same,CC50,[7],6.27 µM
same,GI50,"[8]; SK-MEL-28, 48 h",1.19 µM
same,TGI,"[8]; SK-MEL-28, 48 h",3.11 µM and 2.71 µM
same,CC50,"[8]; human, 48 h",6.21 µM
same,GI50,[9],2.98 µM
same,GI50,[10],1.82 µM
same,TGI,[10],3.39 µM and 3.55 µM
same,GI50,[10]; Homo sapiens,1.68 µM
same,CC50,[10]; Homo sapiens,6.84 µM
same,growth GP,[11]; 48 h,-97.16%
same,CC50,"[11]; human, 48 h",3.03 µM
same,MG_MID TGI,[12],1.92 µM
same,GI50,[12],0.87 µM
same,CC50,[12],11.7 µM
same,GI50,[13]; 48 h,2.38 µM
same,GI50,"[13]; Homo sapiens, A549, 48 h",1.62 µM
same,GI50,[14],0.76 µM
same,CC50,[14],4.4 µM
same,GI50,"[15]; NCI-H23, 48 h",1.23 µM
same,TGI,"[15]; NCI-H23, 48 h",3.10 µM and 2.69 µM
same,CC50,[15]; 48 h,5.89 µM
same,MG_MID TGI,[16],11.35 µM
same,growth GP,[17],-96.43%
same,GI50,[17],1.4 µM
same,TGI,[17],2.09 µM and 2.72 µM
same,GI50,[18],1.12 µM
same,GI50,"[19]; MDA-MB-435, 48 h",0.28 µM
same,CC50,"[19]; human, 48 h",2.74 µM
same,Positive cytostatic effect (ratio of cell lines with GP from 0 to 50 to total number),"[20]; 10 μM, 48 h",4/55
same,Mean growth,"[20]; 10 μM, 48 h, one dose",-67.89%
same,MG_MID TGI,[20],3.58 µM
same,GI50,[21],0.3 µM
same,CC50,"[21]; human, 48 h",9.71 µM
same,TGI,[22],1.32 µM
same,growth GP,[23],-99.76%
same,GI50,[23],1.21 µM
same,TGI,[23],2.82 µM and 2.46 µM
same,GI50,[23]; Homo sapiens,1.5 µM
same,CC50,[23]; Homo sapiens,5.31 µM
same,GI50,[24],0.43 µM
same,TGI,[24],1.85 µM and 2.39 µM
same,combined apoptotic cells,"[26]; MDA-MB-231, 5 μM",5.7%
same,necrotic cells,"[26]; MDA-MB-231, 5 μM",1.4%
same,combined apoptotic cells,"[26]; MDA-MB-231, 10 μM",28.8%
same,necrotic cells,"[26]; MDA-MB-231, 10 μM",42.6%
same,GI50,[25],0.42 µM
same,CC50,[25],4.47 µM
